{"source": "patent US5662604A", "about": "“Monitoring method of renal lesions without clinical signs” (Asahi Kasei Kogyo Kabushiki Kaisha, priority 1995, dated 1997)", "key": {"[1]": {"tested_on": "membrane component of rat renal cortex", "experiment": "Biological activity (cAMP generation, radioimmunoassay) by parallel test against bovine-PTH (1-84) standard", "format": "biochemical", "excerpt": "Biological activity of teriparatide acetate unit can be determined by a parallel test wherein reacting a membrane component of rat renal cortex with teriparatide acetate and assaying generated cAMP by radioimmunoassay. The specific activity of teriparatide acetate is 3,300 units/mg by a parallel test using the standard substance of bovine-PTH (1-84)."}, "[2]": {"tested_on": "urinary NAG", "experiment": "Urinary NAG response to intravenous h-PTH(1-34) in healthy male volunteers (Referential Example)", "format": "in vivo", "protocol": "Method: Fourteen (14) healthy male volunteers were used.\nPrior to 60 minutes for intravenous administration of h-PTH(1-34) 100 units, complete excretion of urine was performed. 200 ml of drinking water was given to the individual volunteers and urine was collected immediately before administration of […]. Then, h-PTH(1-34) 100 units were administered intravenously and 200 ml of drinking water was given to the volunteers, and after 60 minutes urine was again collected. Each of urinary NAG and creatinine in 0.5 ml of urine was measured, and an increased ratio of urinary excreted NAG was calculated. NAG value was corrected by creatinine value.\nFor an assay of NAG, NAG Test Shionogi (Shionogi Pharm. Co., assay method: mcp colorimetry) was used, and for that of creatinine, creatinine-HR (Wako Pure, Chem. Co., assay method: alkali picric acid method) was used. Table 1 illustrates the various parameters, i.e. NAG, AER and serum Cr, in pre- or post-administration of PTH for healthy male volunteers.\nNAG value corrected by creatinine (unit: U/g Cr) is calculated by the equation;\nUrinary NAG (Unit:U/l).div.urinary creatinine (unit:mg/dl)×100.\nThe normal range of urinary NAG value after administration of PTH in healthy volunteers is defined according to the results obtained hereinabove as follows. The normal range is calculated by mean ±2 S.D."}, "[3]": {"tested_on": "urinary NAG", "experiment": "Urinary NAG response to intravenous h-PTH(1-34) in patients with diabetes mellitus having AER below 15 μg/min (Example 2)", "format": "in vivo", "protocol": "The predetermined dose of h-PTH(1-34), for example, is administered intravenously in the patients to carry out the monitoring method of the present invention. The patients are diabetes mellitus patients with an AER value below 15 μg/min., showing latent abnormal renal function without detecting manifestation of abnormal renal function. The h-PTH (1-34) is, for example, administered to these patients. Urinary excreted NAG of the patients can be assayed by hydrolysing a substrate NAG, i.e. sodium-cresol-sulfophthaleinyl-N-acetyl-β-D-glucosaminide (MCP-NAG), by NAG, coloring the thus generated m-cresol purple under alkaline condition by adding sodium carbonate and measuring colorimetrically 580 nm. Urinary NAG value is expressed, for example, as U/l (NAG active unit in one liter of urine). Urinary excreted NAG of the patients before administration of PTH and that after administration of PTH are measured, and an increased ratio of urinary excreted NAG value in the post-administration of PTH against the urinary excreted NAG value in the pre-administration of PTH is calculated.\nUrine of the pre-administration is collected by excretion after accumulating the urine at a constant time interval, preferably 60 min.±10 min., previously after excreting urine in the pre-administration of PTH. Collecting urine is preferably performed immediately before administration of PTH. Urine of the post-administrationis collected after accumulating the urine under the same condition in the pre-administration, i.e. after a constant time interval of 60 min.±10 min., because of performing excretion (collection) of urine immediately before administration of PTH. For effective accumulation of urine, a suitable amount of drinking water, for example 100-300 ml, may be given to the patients. Urinary NAG value can be measured using a specimen of 0.05-1 ml. Since a suitable volume of water is given to the patients, a correction of the NAG value is needed. Accordingly, a parameter of urine volume and concentration, for example another component such as urinary creatinine concentration (expressed as mg/dl) is measured, and NAG value per creatinine value is obtained. A corrected value of NAG for creatinine (Unit: U/g Cr) is calculated by;\nUrinary NAG (U/l ).div.urinary creatinine (mg/dl)×100.\nMethod: Eighteen (18) patients with diabetes mellitus having AER within normal range (below 15 μg/min.) were used.\nSixty minutes prior to intravenous administration of 100 units of h-PTH(1-34), complete excretion of urine was performed. 200 ml of drinking water were given to the individual volunteers and urine was collected immediately before administration of h-PTH(1-34). Then 100 units of h-PTH(1-34) were administered intravenously and 200 ml of drinking water were given for intake, and after 60 minutes urine was collected. Each of urinary NAG and creatinine in 0.5 ml of urine was measured to calculate the increased ratio of urinary excreted NAG. The NAG value was corrected by creatinine value.\nTables 2 and 3 show the various parameters in pre- and post-administration of PTH for the patients of diabetes mellitus showing the value with the normal range of AER (below 15 μg/min.)."}, "[4]": {"tested_on": "urinary excretion of NAG", "details": "intravenous; IHP and PHP patients; Calcif. Tissue Int., 45(6):375 (1989); cited from earlier work"}, "[5]": {"details": "mean of 14 healthy male volunteers, 100 units i.v., 60 min"}, "[6]": {"details": "mean of 18 diabetic patients, 100 units i.v., 60 min"}, "[7]": {"details": "of 18 diabetic patients, 100 units i.v."}}, "note": "Values joined by “and” are separate entries in the source; they are usually repeats but may differ in a detail not shown here. Identical values can stand only once. Counter-ions that a name gives are not always drawn.", "data": [{"compound": "CC[C@H](C)[C@H](NC(=O)[C@H](CCC(=O)O)NC(=O)[C@H](CO)NC(=O)[C@@H](NC(=O)[C@@H](N)CO)C(C)C)C(=O)N[C@@H](CCC(N)=O)C(=O)N[C@@H](CC(C)C)C(=O)N[C@@H](CCSC)C(=O)N[C@@H](Cc1cnc[nH]1)C(=O)N[C@@H](CC(N)=O)C(=O)N[C@@H](CC(C)C)C(=O)NCC(=O)N[C@@H](CCCCN)C(=O)N[C@@H](Cc1cnc[nH]1)C(=O)N[C@@H](CC(C)C)C(=O)N[C@@H](CC(N)=O)C(=O)N[C@@H](CO)C(=O)N[C@@H](CCSC)C(=O)N[C@@H](CCC(=O)O)C(=O)N[C@@H](CCCN=C(N)N)C(=O)N[C@H](C(=O)N[C@@H](CCC(=O)O)C(=O)N[C@@H](Cc1c[nH]c2ccccc12)C(=O)N[C@@H](CC(C)C)C(=O)N[C@@H](CCCN=C(N)N)C(=O)N[C@@H](CCCCN)C(=O)N[C@@H](CCCCN)C(=O)N[C@@H](CC(C)C)C(=O)N[C@@H](CCC(N)=O)C(=O)N[C@@H](CC(=O)O)C(=O)N[C@H](C(=O)N[C@@H](Cc1cnc[nH]1)C(=O)N[C@@H](CC(N)=O)C(=O)N[C@@H](Cc1ccccc1)C(=O)O)C(C)C)C(C)C", "note": "[Teriparatide hydrochloride]", "values": [{"measurement": "Specific activity of the bulk used for the injection", "setting": "[1]; Example 1, Teriparatide hydrochloride", "result": "3,333 teriparatide acetate units/mg"}]}, {"compound": "h-PTH(1-34): h-PTH(1-34) having molecular weight about 4,400 with 34 imino acids sequence", "values": [{"measurement": "Urinary excretion of NAG (in words)", "setting": "[2]; administration of human-PTH (1-34) in healthy volunteers", "result": "increased urinary excretion of NAG"}, {"measurement": "Normal range of increased ratio of urinary NAG in post-administration to pre-administration", "setting": "[2]; healthy volunteers, mean ±2 S.D.", "result": "2.4-4.7"}, {"measurement": "Urinary NAG post-", "setting": "[2]; individual healthy male volunteers, 100 units h-PTH(1-34) i.v., urine 60 min after", "result": "5.9 U/gCr and 8.6 U/gCr and 10.7 U/gCr and 5.7 U/gCr and 7.3 U/gCr and 11.0 U/gCr and 14.7 U/gCr and 17.0 U/gCr and 10.0 U/gCr and 19.3 U/gCr and 6.4 U/gCr and 8.3 U/gCr and 9.8 U/gCr"}, {"measurement": "Urinary NAG changes", "setting": "[2]; individual healthy male volunteers, post minus pre, 100 units h-PTH(1-34) i.v., 60 min", "result": "4.3 U/gcr and 6.4 U/gcr and 7.4 U/gcr and 4.4 U/gcr and 4.9 U/gcr and 8.1 U/gcr and 9.7 U/gcr and 11.5 U/gcr and 7.3 U/gcr and 15.0 U/gcr and 5.8 U/gcr and 6.3 U/gcr and 6.2 U/gcr"}, {"measurement": "Urinary NAG changes in ratio", "setting": "[2]; individual healthy male volunteers, post/pre, 100 units h-PTH(1-34) i.v., 60 min", "result": "3.8 and 3.9 and 3.3 and 4.4 and 3.1 and 3.7 and 2.9 and 3.6 and 4.1 and 3.4 and 2.8 and 2.6"}, {"measurement": "Urinary NAG changes in ratio (increased ratio post-/pre-administration), mean", "setting": "[2]; [5]", "result": "3.5 and 3.5±0.6"}, {"measurement": "Urinary NAG changes, mean", "setting": "[2]; [5]", "result": 7.3, "unit": "U/gcr"}, {"measurement": "Urinary NAG post-, mean", "setting": "[2]; [5]", "result": "10.3 U/gCr and 10.3±4.1 U/gCr"}, {"measurement": "Urinary NAG post-", "setting": "[3]; individual diabetic patients, AER below 15 μg/min, 100 units h-PTH(1-34) i.v., urine 60 min after", "result": "7.3 U/gCr and 7.8 U/gCr and 15.6 U/gCr and 7.5 U/gCr and 11.0 U/gCr and 12.2 U/gCr and 6.8 U/gCr and 17.5 U/gCr and 10.1 U/gCr and 15.3 U/gCr and 4.5 U/gCr and 23.9 U/gCr and 13.4 U/gCr and 15.9 U/gCr and 9.7 U/gCr and 6.7 U/gCr and 16.7 U/gCr"}, {"measurement": "Urinary NAG changes", "setting": "[3]; individual diabetic patients, post minus pre, 100 units h-PTH(1-34) i.v., 60 min", "result": "3.4 U/gcr and 3.9 U/gcr and 7.9 U/gcr and 3.7 U/gcr and 7.1 U/gcr and 4.9 U/gcr and 7.5 U/gcr and 5.8 U/gcr and 11.7 U/gcr and 2.2 U/gcr and 12.7 U/gcr and 8.1 U/gcr and 9.3 U/gcr and 5.1 U/gcr"}, {"measurement": "Urinary NAG changes in ratio", "setting": "[3]; individual diabetic patients, post/pre, 100 units h-PTH(1-34) i.v., 60 min", "result": "1.9 and 2.0 and 2.8 and 1.7 and 2.2 and 1.8 and 2.4 and 4.3 and 1.6 and 2.1 and 2.5 and 2.3 and 3.4"}, {"measurement": "Urinary NAG changes in ratio, mean", "setting": "[3]; [6]", "result": 2.3}, {"measurement": "Urinary NAG changes, mean", "setting": "[3]; [6]", "result": 6.5, "unit": "U/gcr"}, {"measurement": "Urinary NAG post-, mean", "setting": "[3]; [6]", "result": 11.8, "unit": "U/gCr"}, {"measurement": "Number of patients with normal increased ratio of urinary excreted NAG (2.4-4.7)", "setting": "[3]; [7]", "result": 6, "unit": "subjects"}, {"measurement": "Number of patients with significantly decreased increased ratio of urinary NAG (2.3), diagnosed as renal lesion without clinical symptoms of nephropathy", "setting": "[3]; [7]", "result": 12, "unit": "cases"}, {"measurement": "Urinary excretion of NAG (in words)", "setting": "[4]", "result": "increased urinary excretion of NAG in only IHP"}]}, {"compound": "teriparatide acetate", "values": [{"measurement": "Specific activity", "setting": "[1]; parallel test using standard substance of bovine-PTH (1-84)", "result": "3,300 units/mg"}]}]}
